Counter-ions that a name gives are not always drawn.
Target: T1, Human V1b receptor (Homo sapiens, UniProt P47901)
T1 sequence (P47901 1-424): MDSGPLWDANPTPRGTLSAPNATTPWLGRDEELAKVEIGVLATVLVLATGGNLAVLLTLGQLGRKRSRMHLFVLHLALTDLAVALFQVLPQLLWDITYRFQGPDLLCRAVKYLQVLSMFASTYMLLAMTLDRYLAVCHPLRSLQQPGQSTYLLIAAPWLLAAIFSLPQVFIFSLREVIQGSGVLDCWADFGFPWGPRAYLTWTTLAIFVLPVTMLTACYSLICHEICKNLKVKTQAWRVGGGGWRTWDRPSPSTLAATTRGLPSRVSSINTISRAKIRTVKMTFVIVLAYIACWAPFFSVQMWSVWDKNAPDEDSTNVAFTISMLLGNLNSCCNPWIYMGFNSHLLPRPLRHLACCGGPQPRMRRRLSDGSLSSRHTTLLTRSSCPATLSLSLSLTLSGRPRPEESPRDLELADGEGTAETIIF
Assay: Binding test for V1b receptor ([3H]AVP displacement, crude membrane preparation)
Set-up: expressed in transfected cells; host or cells: 293FT cells (Invitrogen), transient expression; crude membrane preparation
Conditions: [3H]AVP 0.4 to 1 nmol/L; membranes of 293FT cells transiently expressing human V1b receptor; room temperature, 60 minutes
Procedure: Binding Test for V1b Receptor
Human V1b receptor was transiently expressed in 293FT cells (Invitrogen). The cells were collected and were homogenated in a 15 mmol/L tris-hydrochloric acid buffer (pH 7.4, containing 2 mmol/L magnesium chloride, 0.3 mmol/L ethylenediaminetetracetic acid, and 1 mmol/L glycol ether diaminetetraacetic acid). The resulting homogenate was centrifuged at 50,000×g at 4° C. for 20 minutes. The precipitate was resuspended in a 75 mmol/L tris-hydrochloric acid buffer (pH 7.4, containing 12.5 mmol/L magnesium chloride, 0.3 mmol/L ethylenediaminetetracetic acid, 1 mmol/L glycol ether diamine tetraacetic acid, and 250 mmol/L sucrose) to give a crude membrane preparation, which was stored at −80° C. until the binding test. In the binding test, the crude membrane preparation was diluted with a 50 mmol/L tris-hydrochloric acid buffer (pH 7.4, containing 10 mmol/L magnesium chloride and 0.1% bovine serum albumin), and test compound was serially diluted with DMSO. The diluted crude membrane preparation was incubated with each test compound (final concentration of 0.01 nmol/L to 1 μmol/L) and [^3H]AVP (final concentration: 0.4 to 1 nmol/L) at room temperature for 60 minutes. After the incubation, the mixture was suction filtered through a GF/C filter pretreated with 0.3% polyethyleneimine. The GF/C filter was dried, and a scintillator was added thereto. The radioactivity remaining on the filter was measured using TopCount (PerkinElmer Inc.). The radioactivity in the presence of 10 μmol/L of unlabeled AVP was defined as 0%, and the radioactivity in the absence of unlabeled AVP was defined as 100%. A dose-response curve was plotted from radioactivities in the presence of a test compound at various concentrations, and the 50% inhibitory concentration (IC50 value) of the compound was calculated.

SMILES	IC50
COc1cc(-c2nn(-c3ccc(CCN4C[C@@H](C)O[C@@H](C)C4)cc3)c(=O)n2CC(=O)NC(C)C)ccc1F [Ca-20, 2-[1-(4-{2-[(2R,6S)-2,6-Dimethylmorpholin-4-yl]ethyl}phenyl)-3-(4-fluoro-3-methoxyphenyl)-5-oxo-1,5-dihydro-4H-1,2,4-triazol-4-yl]-N-(propan-2-yl)acetamide]	10 to 100 nM
COc1cc(-c2nn(-c3ccc(CCN4C(C)COCC4C)cc3)c(=O)n2CC(=O)NC(C)C)ccc1F (centres unmarked) [Ca-21, 2-[1-{4-[2-(3,5-Dimethylmorpholin-4-yl)ethyl]phenyl}-3-(4-fluoro-3-methoxyphenyl)-5-oxo-1,5-dihydro-4H-1,2,4-triazol-4-yl]-N-(propan-2-yl)acetamide trifluoroacetate]	10 to 100 nM
COc1cc(-c2nn(-c3ccc(CCN4CCOCC4C)cc3)c(=O)n2CC(=O)NC(C)C)ccc1F (centres unmarked) [Ca-22, 2-[3-(4-Fluoro-3-methoxyphenyl)-1-{4-[2-(3-methylmorpholin-4-yl)ethyl]phenyl}-5-oxo-1,5-dihydro-4H-1,2,4-triazol-4-yl]-N-(propan-2-yl)acetamide]	10 to 100 nM
CCC1COCCN1CCc1ccc(-n2nc(-c3ccc(F)c(OC)c3)n(CC(=O)NC(C)C)c2=O)cc1 (centres unmarked) [Ca-23, 2-[1-{4-[2-(3-Ethylmorpholin-4-yl)ethyl]phenyl}-3-(4-fluoro-3-methoxyphenyl)-5-oxo-1,5-dihydro-4H-1,2,4-triazol-4-yl]-N-(propan-2-yl)acetamide]	10 to 100 nM
COc1cc(-c2nn(-c3ccc(CCN4CCCC4)cc3)c(=O)n2CC(=O)NC(C)C)ccc1F [Ca-24, 2-[3-(4-Fluoro-3-methoxyphenyl)-5-oxo-1-{4-[2-(pyrrolidin-1-yl)ethyl]phenyl}-1,5-dihydro-4H-1,2,4-triazol-4-yl]-N-(propan-2-yl)acetamide formate]	10 to 100 nM
COc1cc(-c2nn(-c3ccc(CCN4CCN(C)CC4)cc3)c(=O)n2CC(=O)NC(C)C)ccc1F [Ca-25, 2-[3-(4-Fluoro-3-methoxyphenyl)-1-{4-[2-(4-methylpiperazin-1-yl)ethyl]phenyl}-5-oxo-1,5-dihydro-4H-1,2,4-triazol-4-yl]-N-(propan-2-yl)acetamide trifluoroacetate]	100 to 1000 nM
COc1cc(-c2nn(-c3ccc(CCN4CCN(C(C)=O)CC4)cc3)c(=O)n2CC(=O)NC(C)C)ccc1F [Ca-26, 2-[1-{4-[2-(4-Acetylpiperazin-1-yl)ethyl]phenyl}-3-(4-fluoro-3-methoxyphenyl)-5-oxo-1,5-dihydro-4H-1,2,4-triazol-4-yl]-N-(propan-2-yl)acetamide trifluoroacetate]	100 to 1000 nM
COc1cc(-c2nn(-c3ccc(CCN4CCC(C)(O)CC4)cc3)c(=O)n2CC(=O)NC(C)C)ccc1F [Ca-27, 2-[3-(4-Fluoro-3-methoxyphenyl)-1-{4-[2-(4-hydroxy4-methylpiperidin-1-yl)ethyl]phenyl}-5-oxo-1,5-dihydro-4H-1,2,4-triazol-4-yl]-N-(propan-2-yl)acetamide trifluoroacetate]	100 to 1000 nM
COc1cc(-c2nn(-c3ccc(CCN4C5CCC4CC(O)C5)cn3)c(=O)n2CC(=O)NC(C)C)ccc1F (centres unmarked) [Cb-4, 2-[3-(4-Fluoro-3-methoxyphenyl)-1-{5-[2-(3-hydroxy-8-azabicyclo[3.2.1]oct-8-yl)ethyl]pyridin-2-yl}-5-oxo-1,5-dihydro-4H-1,2,4-triazol-4-yl]-N-(propan-2-yl)acetamide]	8.6 nM
COc1cc(-c2nn(-c3ccc(CCN4C5CCC4COC5)cn3)c(=O)n2CC(=O)NC(C)C)ccc1F [Cb-5, 2-[3-(4-Fluoro-3-methoxyphenyl)-1-{5-[2-(3-oxa-8-azabicyclo[3.2.1]oct-8-yl)ethyl]pyridin-2-yl}-5-oxo-1,5-dihydro-4H-1,2,4-triazol-4-yl]-N-(propan-2-yl)acetamide]	16 nM
COc1cc(-c2nn(-c3ncc(CCN4CCOCC4)cn3)c(=O)n2CC(=O)NC(C)C)ccc1F [Cd-1, 2-[3-(4-Fluoro-3-methoxyphenyl)-1-{5-[2-(morpholin-4-yl)ethyl]pyrimidin-2-yl}-5-oxo-1,5-dihydro-4H-1,2,4-triazol-4-yl]-N-(propan-2-yl)acetamide]	166 nM
COc1cc(-c2nn(-c3ccc(CC(C)N4C5CCC4COC5)cc3)c(=O)n2CC(=O)NC(C)C)ccc1F (centres unmarked) [Cd-2, 2-[3-(4-Fluoro-3-methoxyphenyl)-1-{4-[2-(3-oxa-8-azabicyclo[3.2.1]oct-8-yl)propyl]phenyl}-5-oxo-1,5-dihydro-4H-1,2,4-triazol-4-yl]-N-(propan-2-yl)acetamide]	0.51 nM
COc1cc(-c2nn(-c3ccc(CC(C)N4C5CCC4COC5)cn3)c(=O)n2CC(=O)NC(C)C)ccc1F (centres unmarked) [Cd-3, 2-[3-(4-Fluoro-3-methoxyphenyl)-1-{5-[2-(3-oxa-8-azabicyclo[3.2.1]oct-8-yl)propyl]pyridin-2-yl}-5-oxo-1,5-dihydro-4H-1,2,4-triazol-4-yl]-N-(propan-2-yl)acetamide]	0.55 nM
COc1cc(-c2nn(-c3ccc(CN4CCN(C)CC4)cc3)c(=O)n2CC(=O)NC(C)C)ccc1F [Cd-4, 2-[3-(4-Fluoro-3-methoxyphenyl)-1-{4-[(4-methylpiperazin-1-yl)methyl]phenyl}-5-oxo-1,5-dihydro-4H-1,2,4-triazol-4-yl]-N-(propan-2-yl)acetamide]	863 nM
CC(C)NC(=O)Cn1c(-c2ccc(F)c(Cl)c2)nn(-c2ccc(CCN3CCCCC3)cc2)c1=O [Da-1, 2-[3-(3-Chloro-4-fluorophenyl)-5-oxo-1-{4-[2-(piperidin-1-yl)ethyl]phenyl}-1,5-dihydro-4H-1,2,4-triazol-4-yl]-N-(propan-2-yl)acetamide]	17 nM
CC(C)NC(=O)Cn1c(-c2ccc(F)c(Cl)c2)nn(-c2ccc(CCN3CC4(COC4)C3)cc2)c1=O [Da-3, 2-[3-(3-Chloro-4-fluorophenyl)-1-{4-[2-(2-oxa-6-azaspiro[3.3]hept-6-yl)ethyl]phenyl}-5-oxo-1,5-dihydro-4H-1,2,4-triazol-4-yl]-N-(propan-2-yl)acetamide]	32 nM
CC(C)NC(=O)Cn1c(-c2ccc(F)c(Cl)c2)nn(-c2ccc(CCN3CCCOCC3)cc2)c1=O [Da-4, 2-[3-(3-Chloro-4-fluorophenyl)-1-{4-[2-(1,4-oxazepan-4-yl)ethyl]phenyl}-5-oxo-1,5-dihydro-4H-1,2,4-triazol-4-yl]-N-(propan-2-yl)acetamide]	12 nM
CC(C)NC(=O)Cn1c(-c2ccc(F)c(Cl)c2)nn(-c2ccc(CCN3CCCCC3)cn2)c1=O [Db-1, 2-[3-(3-Chloro-4-fluorophenyl)-5-oxo-1-{5-[2-(piperidin-1-yl)ethyl]pyridin-2-yl}-1,5-dihydro-4H-1,2,4-triazol-4-yl]-N-(propan-2-yl)acetamide]	16 nM
CC(C)NC(=O)Cn1c(-c2ccc(F)c(Cl)c2)nn(-c2ccc(CCN3CCOCC3)cn2)c1=O [Db-2, 2-[3-(3-Chloro-4-fluorophenyl)-1-{5-[2-(morpholin-4-yl)ethyl]pyridin-2-yl}-5-oxo-1,5-dihydro-4H-1,2,4-triazol-4-yl]-N-(propan-2-yl)acetamide]	7.1 nM
CC(C)NC(=O)Cn1c(-c2ccc(F)c(Cl)c2)nn(-c2ccc(CCN3CC4(COC4)C3)cn2)c1=O [Db-3, 2-[3-(3-Chloro-4-fluorophenyl)-1-{5-[2-(2-oxa-6-azaspiro[3.3]hept-6-yl)ethyl]pyridin-2-yl}-5-oxo-1,5-dihydro-4H-1,2,4-triazol-4-yl]-N-(propan-2-yl)acetamide]	10 nM
CC(C)NC(=O)Cn1c(-c2ccc(F)c(Cl)c2)nn(-c2ccc(CCN3C4CCC3COC4)cn2)c1=O [Db-4, 2-[3-(3-Chloro-4-fluorophenyl)-1-{5-[2-(3-oxa-8-azabicyclo[3.2.1]oct-8-yl)ethyl]pyridin-2-yl}-5-oxo-1,5-dihydro-4H-1,2,4-triazol-4-yl]-N-(propan-2-yl)acetamide]	2.9 nM
CC(C)NC(=O)Cn1c(-c2cccc(C#N)c2)nn(-c2ccc(CCN3CCOCC3)cc2)c1=O [Ea-2, 2-[3-(3-Cyanophenyl)-1-{4-[2-(morpholin-4-yl)ethyl]phenyl}-5-oxo-1,5-dihydro-4H-1,2,4-triazol-4-yl]-N-(propan-2-yl)acetamide]	48 nM
CC(C)NC(=O)Cn1c(-c2cccc(F)c2)nn(-c2ccc(CCN3CCOCC3)cc2)c1=O [Fa-1, 2-[3-(3-Fluorophenyl)-1-{4-[2-(morpholin-4-yl)ethyl]phenyl}-5-oxo-1,5-dihydro-4H-1,2,4-triazol-4-yl]-N-(propan-2-yl)acetamide]	46 nM
